Data taken from ChEMBL document CHEMBL1150481, “The inhibition of glutamate racemase by” (Bioorg Med Chem Lett, 1997).

T1: Glutamate racemase (Lactobacillus fermentum, UniProt Q03469)
T1 sequence (Q03469 whole entry): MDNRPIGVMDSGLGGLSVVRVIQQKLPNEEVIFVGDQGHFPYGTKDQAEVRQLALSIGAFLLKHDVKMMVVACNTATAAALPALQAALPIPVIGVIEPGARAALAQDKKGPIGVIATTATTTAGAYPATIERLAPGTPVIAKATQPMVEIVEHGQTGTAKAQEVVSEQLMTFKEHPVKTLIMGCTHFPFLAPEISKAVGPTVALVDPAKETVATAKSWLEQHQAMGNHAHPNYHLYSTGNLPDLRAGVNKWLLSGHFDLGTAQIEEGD

T2: Glutamate racemase (Lactobacillus fermentum) (UniProt Q03469)
T2 sequence (whole entry): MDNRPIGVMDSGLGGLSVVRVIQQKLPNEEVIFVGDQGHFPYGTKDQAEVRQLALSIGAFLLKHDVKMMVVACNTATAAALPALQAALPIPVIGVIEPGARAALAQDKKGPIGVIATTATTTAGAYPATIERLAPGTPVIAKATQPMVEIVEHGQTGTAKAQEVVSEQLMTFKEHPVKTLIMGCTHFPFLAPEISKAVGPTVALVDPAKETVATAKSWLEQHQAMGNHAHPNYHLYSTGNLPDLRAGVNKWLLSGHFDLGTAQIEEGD


Tests used:
[1] = target: T1, Glutamate racemase; assay: Inhibition towards glutamate racemase from Lactobacillus fermenti was determined and expressed as KI; set-up: species or system Limosilactobacillus fermentum
[2] = target: T1, Glutamate racemase; assay: Inhibition towards glutamate racemase was determined and expressed as KI; set-up: species or system Limosilactobacillus fermentum
[3] = Ratio of kcat to that of KM was determined
[4] = Inhibition towards diaminopimelate (DAP) epimerase was determined
[5] = target: T2, Glutamate racemase (Lactobacillus fermentum); assay: Enzyme kinetic constant for Glutamate racemase and expressed as Kcat
[6] = Inhibition towards diaminopimelate (DAP) epimerase was determined and expressed as KI
[7] = substrate: O=C(O)CCC(=O)C(=O)O; assay: Enzyme kinetic constant for Glutamate racemase and expressed as Km
[8] = substrate: N[C@H](CCC(=O)O)C(=O)O; details: Limosilactobacillus fermentum

| k cat/Km [3] [M⁻¹ s⁻¹] | Molecule | IC50 [4] [µM] | other results |
| --- | --- | --- | --- |
| 3700 | N[C@H](CCC(=O)O)C(=O)O [D-GLUTAMATE] |  | Ki [1]: 56 µM; Ki [2]: 190 µM |
|  | N[C@H](C(=O)O)[C@@H](F)CC[C@H](N)C(=O)O | 4 |  |
|  | N[C@H](C(=O)O)[C@H](F)CC[C@H](N)C(=O)O | 10 |  |
| 30 | N[C@@H](CCC(=O)O)C(=O)O [GLUTAMIC ACID] |  | Ki [1]: 28 µM |
| 3200 | O=C(O)CCC(=O)C(=O)O |  | k cat [5]: 0.18 s⁻¹ |
|  | N[C@@H](CC[C@@H](F)[C@@H](N)C(=O)O)C(=O)O | 25 |  |
|  | NC(CCCC(NO)C(=O)O)C(=O)O (centres undefined) |  | Ki [6]: 5.6 µM |
|  | N[C@@H](CC[C@H](F)[C@@H](N)C(=O)O)C(=O)O | 8 |  |
|  | Glutamate racemase (Lactobacillus fermentum), Q03469 (protein) MDNRPIGVMDSGLGGLSVVRVIQQKLPNEEVIFVGDQGHFPYGTKDQAEVRQLALSIGAFLLKHDVKMMVVACNTATAAALPALQAALPIPVIGVIEPGARAALAQDKKGPIGVIATTATTTAGAYPATIERLAPGTPVIAKATQPMVEIVEHGQTGTAKAQEVVSEQLMTFKEHPVKTLIMGCTHFPFLAPEISKAVGPTVALVDPAKETVATAKSWLEQHQAMGNHAHPNYHLYSTGNLPDLRAGVNKWLLSGHFDLGTAQIEEGD |  | Km [7]: 57 µM; Km [8]: 300 µM |
